{"source": "ChEMBL document CHEMBL1909046", "about": "“DrugMatrix in vitro pharmacology data”"}
{"system": "not listed separately", "experiment": "DRUGMATRIX: Potassium Channel [KATP] radioligand binding (ligand: [3H] Glyburide)", "type": "cell membranes, Membrane", "conditions": "hit-t15; Not Active = under 50% inhibition at 10 µM"}
{"molecule": "CC(C)(C)NC[C@H](O)COc1cccc2c1CCCC2=O", "note": "[LEVOBUNOLOL]", "IC50": "Not Active", "Ki": "Not Active"}
{"molecule": "CCOc1cc(N)c(Cl)cc1C(=O)NCC1CN(Cc2ccc(F)cc2)CCO1", "note": "(centres undefined) [MOSAPRIDE]", "IC50": "Not Active", "Ki": "Not Active"}
{"molecule": "CC(=O)O[C@]1(C(C)=O)CC[C@H]2[C@@H]3C[C@H](C)C4=CC(=O)CC[C@]4(C)[C@H]3CC[C@@]21C", "note": "[MEDROXYPROGESTERONE ACETATE]", "IC50": "Not Active", "Ki": "Not Active"}
{"molecule": "OC[C@@H](O)[C@@H](O)[C@H](O)[C@H](O)CO", "note": "[MANNITOL]", "IC50": "Not Active", "Ki": "Not Active"}
{"molecule": "CC(Cl)(Cl)Cl", "note": "[TRICHLOROETHANE]", "IC50": "Not Active", "Ki": "Not Active"}
{"molecule": "LEAD(IV) ACETATE", "IC50": "Not Active", "Ki": "Not Active"}
{"molecule": "O=C(c1ccccc1)c1ccc2n1CCC2C(=O)O", "note": "(centres undefined) [KETOROLAC]", "IC50": "Not Active", "Ki": "Not Active"}
{"biological_target": "T1, 3-hydroxy-3-methylglutaryl-coenzyme A reductase (Homo sapiens, UniProt P04035)", "T1 sequence (P04035 whole entry)": "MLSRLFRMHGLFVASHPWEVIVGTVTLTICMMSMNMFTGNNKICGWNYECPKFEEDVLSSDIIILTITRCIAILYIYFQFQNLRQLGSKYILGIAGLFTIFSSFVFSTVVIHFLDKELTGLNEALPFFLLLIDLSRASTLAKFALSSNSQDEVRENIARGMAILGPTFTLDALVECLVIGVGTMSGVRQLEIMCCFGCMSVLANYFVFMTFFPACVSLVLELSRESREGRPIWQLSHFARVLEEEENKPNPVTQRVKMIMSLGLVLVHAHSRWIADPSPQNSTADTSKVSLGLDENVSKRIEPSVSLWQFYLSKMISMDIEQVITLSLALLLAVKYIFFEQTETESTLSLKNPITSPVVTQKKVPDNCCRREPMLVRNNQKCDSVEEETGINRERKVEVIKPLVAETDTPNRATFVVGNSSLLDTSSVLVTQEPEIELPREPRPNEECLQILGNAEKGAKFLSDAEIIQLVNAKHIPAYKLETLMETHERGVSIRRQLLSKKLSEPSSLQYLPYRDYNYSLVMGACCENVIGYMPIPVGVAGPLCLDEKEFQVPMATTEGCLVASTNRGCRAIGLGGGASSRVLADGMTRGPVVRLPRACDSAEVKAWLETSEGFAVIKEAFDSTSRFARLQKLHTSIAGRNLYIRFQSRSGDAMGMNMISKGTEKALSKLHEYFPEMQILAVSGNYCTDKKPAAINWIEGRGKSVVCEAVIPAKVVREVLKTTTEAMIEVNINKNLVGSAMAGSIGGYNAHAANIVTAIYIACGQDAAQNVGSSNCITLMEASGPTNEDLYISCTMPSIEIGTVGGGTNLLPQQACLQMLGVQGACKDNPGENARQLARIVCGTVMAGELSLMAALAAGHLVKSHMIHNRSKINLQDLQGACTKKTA", "experiment": "not given", "set-up": "species or system Escherichia coli", "conditions": "not given"}
{"molecule": "CC(C)(C)NC[C@H](O)COc1cccc2c1CCCC2=O", "note": "[LEVOBUNOLOL]", "IC50": "Not Active"}
{"molecule": "CCOc1cc(N)c(Cl)cc1C(=O)NCC1CN(Cc2ccc(F)cc2)CCO1", "note": "(centres undefined) [MOSAPRIDE]", "IC50": "Not Active"}
{"molecule": "CC(=O)O[C@]1(C(C)=O)CC[C@H]2[C@@H]3C[C@H](C)C4=CC(=O)CC[C@]4(C)[C@H]3CC[C@@]21C", "note": "[MEDROXYPROGESTERONE ACETATE]", "IC50": "Not Active"}
{"molecule": "OC[C@@H](O)[C@@H](O)[C@H](O)[C@H](O)CO", "note": "[MANNITOL]", "IC50": "Not Active"}
{"molecule": "CC(Cl)(Cl)Cl", "note": "[TRICHLOROETHANE]", "IC50": "Not Active"}
{"molecule": "LEAD(IV) ACETATE", "IC50": "Not Active", "Ki": "Not Active"}
{"molecule": "O=C(c1ccccc1)c1ccc2n1CCC2C(=O)O", "note": "(centres undefined) [KETOROLAC]", "IC50": "Not Active"}
{"biological_target": "Tyrosine-protein kinase Fyn (Homo sapiens, UniProt P06241)", "sequence (P06241 whole entry)": "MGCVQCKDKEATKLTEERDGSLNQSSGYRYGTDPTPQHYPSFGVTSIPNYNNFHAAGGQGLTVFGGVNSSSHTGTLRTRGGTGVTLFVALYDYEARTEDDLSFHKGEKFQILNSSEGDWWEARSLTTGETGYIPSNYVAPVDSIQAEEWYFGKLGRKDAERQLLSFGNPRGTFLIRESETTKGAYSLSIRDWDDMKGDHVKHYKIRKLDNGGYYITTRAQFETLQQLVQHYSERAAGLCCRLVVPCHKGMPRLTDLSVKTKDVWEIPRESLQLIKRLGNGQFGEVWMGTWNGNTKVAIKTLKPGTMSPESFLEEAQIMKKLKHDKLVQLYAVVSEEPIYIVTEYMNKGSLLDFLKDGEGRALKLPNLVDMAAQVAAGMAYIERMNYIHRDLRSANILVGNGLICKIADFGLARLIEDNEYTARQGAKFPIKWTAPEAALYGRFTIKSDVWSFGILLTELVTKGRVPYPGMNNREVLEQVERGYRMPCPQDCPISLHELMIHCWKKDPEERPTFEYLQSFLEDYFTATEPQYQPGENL", "experiment": "biochemical", "type": "cell-based, Insect cells", "conditions": "insect cells"}
{"molecule": "CC(C)(C)NC[C@H](O)COc1cccc2c1CCCC2=O", "note": "[LEVOBUNOLOL]", "IC50": "Not Active"}
{"molecule": "CCOc1cc(N)c(Cl)cc1C(=O)NCC1CN(Cc2ccc(F)cc2)CCO1", "note": "(centres undefined) [MOSAPRIDE]", "IC50": "Not Active"}
{"molecule": "CC(=O)O[C@]1(C(C)=O)CC[C@H]2[C@@H]3C[C@H](C)C4=CC(=O)CC[C@]4(C)[C@H]3CC[C@@]21C", "note": "[MEDROXYPROGESTERONE ACETATE]", "IC50": "Not Active"}
{"molecule": "OC[C@@H](O)[C@@H](O)[C@H](O)[C@H](O)CO", "note": "[MANNITOL]", "IC50": "Not Active"}
{"molecule": "CC(Cl)(Cl)Cl", "note": "[TRICHLOROETHANE]", "IC50": "Not Active"}
{"molecule": "O=C(c1ccccc1)c1ccc2n1CCC2C(=O)O", "note": "(centres undefined) [KETOROLAC]", "IC50": "Not Active"}
{"biological_target": "Tyrosine-protein kinase Fyn (Homo sapiens, UniProt P06241)", "experiment": "biochemical", "type": "cell-based, Insect cells", "conditions": "insect cells; read-out: IC50", "units": {"IC50": "µM"}}
{"molecule": "LEAD(IV) ACETATE", "IC50": 3.31}
{"biological_target": "Sodium-dependent dopamine transporter (Homo sapiens, UniProt Q01959)", "sequence (Q01959 whole entry)": "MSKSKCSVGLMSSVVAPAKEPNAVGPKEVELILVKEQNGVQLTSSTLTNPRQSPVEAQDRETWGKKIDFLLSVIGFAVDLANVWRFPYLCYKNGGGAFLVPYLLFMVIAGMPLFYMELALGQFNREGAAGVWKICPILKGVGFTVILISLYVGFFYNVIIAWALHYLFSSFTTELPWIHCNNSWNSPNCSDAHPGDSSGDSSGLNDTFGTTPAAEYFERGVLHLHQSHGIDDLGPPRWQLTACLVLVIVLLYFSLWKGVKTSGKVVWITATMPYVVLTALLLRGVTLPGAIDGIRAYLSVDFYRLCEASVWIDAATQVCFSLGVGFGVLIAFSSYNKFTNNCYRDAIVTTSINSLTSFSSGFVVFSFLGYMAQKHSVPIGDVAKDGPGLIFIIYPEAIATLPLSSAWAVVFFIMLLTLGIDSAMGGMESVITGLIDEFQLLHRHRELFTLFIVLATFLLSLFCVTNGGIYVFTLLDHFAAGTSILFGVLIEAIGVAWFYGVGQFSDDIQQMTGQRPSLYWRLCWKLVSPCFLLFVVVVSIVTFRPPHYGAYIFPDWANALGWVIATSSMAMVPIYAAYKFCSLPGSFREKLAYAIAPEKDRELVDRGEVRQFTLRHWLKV", "experiment": "DRUGMATRIX: Dopamine Transporter radioligand binding (ligand: [125I] RTI-55)", "type": "cell membranes, CHO-K1, Membrane", "conditions": "cho-k1; Not Active = under 50% inhibition at 10 µM"}
{"molecule": "CC(C)(C)NC[C@H](O)COc1cccc2c1CCCC2=O", "note": "[LEVOBUNOLOL]", "IC50": "Not Active"}
{"molecule": "CCOc1cc(N)c(Cl)cc1C(=O)NCC1CN(Cc2ccc(F)cc2)CCO1", "note": "(centres undefined) [MOSAPRIDE]", "IC50": "Not Active"}
{"molecule": "CC(=O)O[C@]1(C(C)=O)CC[C@H]2[C@@H]3C[C@H](C)C4=CC(=O)CC[C@]4(C)[C@H]3CC[C@@]21C", "note": "[MEDROXYPROGESTERONE ACETATE]", "IC50": "Not Active"}
{"molecule": "OC[C@@H](O)[C@@H](O)[C@H](O)[C@H](O)CO", "note": "[MANNITOL]", "IC50": "Not Active"}
{"molecule": "CC(Cl)(Cl)Cl", "note": "[TRICHLOROETHANE]", "IC50": "Not Active"}
{"molecule": "LEAD(IV) ACETATE", "IC50": "Not Active", "Ki": "Not Active"}
{"molecule": "O=C(c1ccccc1)c1ccc2n1CCC2C(=O)O", "note": "(centres undefined) [KETOROLAC]", "IC50": "Not Active"}
{"system": "not listed separately", "experiment": "DRUGMATRIX: Phosphodiesterase PDE4 enzyme inhibition (substrate: [3H]cAMP + cAMP)", "conditions": "u-937; Not Active = under 50% inhibition at 10 µM"}
{"molecule": "CC(C)(C)NC[C@H](O)COc1cccc2c1CCCC2=O", "note": "[LEVOBUNOLOL]", "IC50": "Not Active", "Ki": "Not Active"}
{"molecule": "CCOc1cc(N)c(Cl)cc1C(=O)NCC1CN(Cc2ccc(F)cc2)CCO1", "note": "(centres undefined) [MOSAPRIDE]", "IC50": "Not Active", "Ki": "Not Active"}
{"molecule": "CC(=O)O[C@]1(C(C)=O)CC[C@H]2[C@@H]3C[C@H](C)C4=CC(=O)CC[C@]4(C)[C@H]3CC[C@@]21C", "note": "[MEDROXYPROGESTERONE ACETATE]", "IC50": "Not Active", "Ki": "Not Active"}
{"molecule": "OC[C@@H](O)[C@@H](O)[C@H](O)[C@H](O)CO", "note": "[MANNITOL]", "IC50": "Not Active", "Ki": "Not Active"}
{"molecule": "CC(Cl)(Cl)Cl", "note": "[TRICHLOROETHANE]", "IC50": "Not Active", "Ki": "Not Active"}
{"molecule": "LEAD(IV) ACETATE", "IC50": "Not Active", "Ki": "Not Active"}
{"molecule": "O=C(c1ccccc1)c1ccc2n1CCC2C(=O)O", "note": "(centres undefined) [KETOROLAC]", "IC50": "Not Active", "Ki": "Not Active"}
{"system": "not listed separately", "experiment": "DRUGMATRIX: GABAA, Chloride Channel, TBOB radioligand binding (ligand: [3H] TBOB)", "type": "cell membranes, Rattus norvegicus, Wistar, Cerebral cortex, Membrane", "conditions": "Not Active = under 50% inhibition at 10 µM"}
{"molecule": "CC(C)(C)NC[C@H](O)COc1cccc2c1CCCC2=O", "note": "[LEVOBUNOLOL]", "IC50": "Not Active", "Ki": "Not Active"}
{"molecule": "CCOc1cc(N)c(Cl)cc1C(=O)NCC1CN(Cc2ccc(F)cc2)CCO1", "note": "(centres undefined) [MOSAPRIDE]", "IC50": "Not Active", "Ki": "Not Active"}
{"molecule": "CC(=O)O[C@]1(C(C)=O)CC[C@H]2[C@@H]3C[C@H](C)C4=CC(=O)CC[C@]4(C)[C@H]3CC[C@@]21C", "note": "[MEDROXYPROGESTERONE ACETATE]", "IC50": "Not Active", "Ki": "Not Active"}
{"molecule": "OC[C@@H](O)[C@@H](O)[C@H](O)[C@H](O)CO", "note": "[MANNITOL]", "IC50": "Not Active", "Ki": "Not Active"}
{"molecule": "CC(Cl)(Cl)Cl", "note": "[TRICHLOROETHANE]", "IC50": "Not Active", "Ki": "Not Active"}
{"molecule": "LEAD(IV) ACETATE", "IC50": "Not Active", "Ki": "Not Active"}
{"molecule": "O=C(c1ccccc1)c1ccc2n1CCC2C(=O)O", "note": "(centres undefined) [KETOROLAC]", "IC50": "Not Active", "Ki": "Not Active"}
{"system": "not listed separately", "experiment": "DRUGMATRIX: Interleukin IL-1 radioligand binding (ligand: [125I] interleukin 1beta)", "type": "cell membranes, Membrane", "conditions": "nih3t3; Not Active = under 50% inhibition at 10 µM"}
{"molecule": "CC(C)(C)NC[C@H](O)COc1cccc2c1CCCC2=O", "note": "[LEVOBUNOLOL]", "IC50": "Not Active", "Ki": "Not Active"}
{"molecule": "CCOc1cc(N)c(Cl)cc1C(=O)NCC1CN(Cc2ccc(F)cc2)CCO1", "note": "(centres undefined) [MOSAPRIDE]", "IC50": "Not Active", "Ki": "Not Active"}
{"molecule": "CC(=O)O[C@]1(C(C)=O)CC[C@H]2[C@@H]3C[C@H](C)C4=CC(=O)CC[C@]4(C)[C@H]3CC[C@@]21C", "note": "[MEDROXYPROGESTERONE ACETATE]", "IC50": "Not Active", "Ki": "Not Active"}
{"molecule": "OC[C@@H](O)[C@@H](O)[C@H](O)[C@H](O)CO", "note": "[MANNITOL]", "IC50": "Not Active", "Ki": "Not Active"}
{"molecule": "CC(Cl)(Cl)Cl", "note": "[TRICHLOROETHANE]", "IC50": "Not Active", "Ki": "Not Active"}
{"molecule": "LEAD(IV) ACETATE", "IC50": "Not Active", "Ki": "Not Active"}
{"molecule": "O=C(c1ccccc1)c1ccc2n1CCC2C(=O)O", "note": "(centres undefined) [KETOROLAC]", "IC50": "Not Active", "Ki": "Not Active"}
